Test results: patent US10717716B2, “1,3,4-oxadiazole derivative compounds as histone deacetylase 6 inhibitor, and the pharmaceutical composition comprising the same” (Chong Kun Dang Pharmaceutical Corp., priority 2015, dated 2020)

Molecular target: T1, human recombinant HDAC6 (Homo sapiens, UniProt Q9UBN7)
T1 construct: purchased Calbiochem 382180
T1 sequence (Q9UBN7 1-1215): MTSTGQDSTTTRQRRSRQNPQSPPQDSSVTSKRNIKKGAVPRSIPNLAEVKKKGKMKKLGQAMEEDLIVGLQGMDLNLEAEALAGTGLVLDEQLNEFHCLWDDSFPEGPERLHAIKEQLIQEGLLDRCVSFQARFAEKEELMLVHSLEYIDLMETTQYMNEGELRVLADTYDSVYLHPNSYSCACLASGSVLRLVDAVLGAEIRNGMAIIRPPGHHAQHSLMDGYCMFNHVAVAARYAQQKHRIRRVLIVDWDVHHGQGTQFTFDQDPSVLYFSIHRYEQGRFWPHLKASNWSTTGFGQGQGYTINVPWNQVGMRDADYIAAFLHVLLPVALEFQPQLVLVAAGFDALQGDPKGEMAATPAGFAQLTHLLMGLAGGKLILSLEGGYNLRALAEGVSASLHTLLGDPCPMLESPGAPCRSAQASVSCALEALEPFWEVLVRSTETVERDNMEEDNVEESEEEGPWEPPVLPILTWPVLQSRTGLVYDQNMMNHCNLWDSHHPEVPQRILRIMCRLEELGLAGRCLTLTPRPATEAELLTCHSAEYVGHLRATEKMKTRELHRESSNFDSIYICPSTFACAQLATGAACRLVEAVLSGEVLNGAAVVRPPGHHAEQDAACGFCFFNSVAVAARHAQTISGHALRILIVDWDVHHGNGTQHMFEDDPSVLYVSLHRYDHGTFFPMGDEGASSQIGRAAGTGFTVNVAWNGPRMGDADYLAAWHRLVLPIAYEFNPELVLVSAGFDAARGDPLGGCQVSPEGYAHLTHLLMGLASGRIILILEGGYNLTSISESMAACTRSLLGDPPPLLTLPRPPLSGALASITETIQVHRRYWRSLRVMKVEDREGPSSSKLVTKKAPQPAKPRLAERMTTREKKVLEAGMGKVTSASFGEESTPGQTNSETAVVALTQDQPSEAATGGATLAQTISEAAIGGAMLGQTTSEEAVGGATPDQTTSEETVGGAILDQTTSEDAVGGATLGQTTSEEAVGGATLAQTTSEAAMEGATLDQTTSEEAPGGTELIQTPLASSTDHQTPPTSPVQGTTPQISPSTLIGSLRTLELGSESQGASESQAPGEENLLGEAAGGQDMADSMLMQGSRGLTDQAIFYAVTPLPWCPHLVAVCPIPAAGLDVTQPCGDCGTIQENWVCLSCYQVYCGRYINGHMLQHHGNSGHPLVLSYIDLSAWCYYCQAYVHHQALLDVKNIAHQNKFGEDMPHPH
Assay: HDAC6 enzyme activity inhibition assay (HDAC Fluorimetric Drug Discovery Kit)
Assay type: biochemical
Conditions: for HDAC6 selectivity (fold): HDAC6 over HDAC1; for IC50: human recombinant HDAC6, same protocol as HDAC1, read-out: HDAC6
Summary of the method: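 Human recombinant HDAC1 or HDAC6 (0.3 μg) reacted with 10 μM Fluor de Lys-SIRT1 substrate and 5-fold compound dilutions for 60 min at 30 °C. Developer II added for 30 min, fluorescence read at Ex 360/Em 460; IC50 calculated from the readings.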

CN1CCN(C(=O)N(Cc2ccc(-c3nnc(C(F)F)o3)cc2F)c2cccc(Cl)c2)CC1 [Compound 21467, N-(3-chlorophenyl)-N-(4-(5-(difluoromethyl)-1,3,4-oxadiazol-2-yl)-2-fluorobenzyl)-4-methylpiperazine-1-carboxamide]
HDAC6 selectivity (fold): 323 fold | IC50: 31 nM

CN1CCN(C(=O)N(Cc2ccc(-c3nnc(C(F)F)o3)cc2F)c2ccc(Cl)cc2)CC1 [Compound 21468, N-(4-chlorophenyl)-N-(4-(5-(difluoromethyl)-1,3,4-oxadiazol-2-yl)-2-fluorobenzyl)-4-methylpiperazine-1-carboxamide]
HDAC6 selectivity (fold): 159 fold | IC50: 63 nM

Cc1ccccc1N(Cc1ccc(-c2nnc(C(F)F)o2)cc1F)C(=O)N1CCN(C)CC1 [Compound 21469, N-(4-(5-(difluoromethyl)-1,3,4-oxadiazol-2-yl)-2-fluorobenzyl)-4-methyl-N-(o-tolyl)piperazine-1-carboxamide]
HDAC6 selectivity (fold): 244 fold | IC50: 41 nM

Cc1cccc(N(Cc2ccc(-c3nnc(C(F)F)o3)cc2F)C(=O)N2CCN(C)CC2)c1 [Compound 21470, N-(4-(5-(difluoromethyl)-1,3,4-oxadiazol-2-yl)-2-fluorobenzyl)-4-methyl-N-(m-tolyl)piperazine-1-carboxamide]
HDAC6 selectivity (fold): 313 fold | IC50: 32 nM

Cc1ccc(N(Cc2ccc(-c3nnc(C(F)F)o3)cc2F)C(=O)N2CCN(C)CC2)cc1 [Compound 21471, N-(4-(5-(difluoromethyl)-1,3,4-oxadiazol-2-yl)-2-fluorobenzyl)-4-methyl-N-(p-tolyl)piperazine-1-carboxamide]
HDAC6 selectivity (fold): 213 fold | IC50: 47 nM

COc1ccccc1N(Cc1ccc(-c2nnc(C(F)F)o2)cc1F)C(=O)N1CCN(C)CC1 [Compound 21472, N-(4-(5-(difluoromethyl)-1,3,4-oxadiazol-2-yl)-2-fluorobenzyl)-N-(2-methoxyphenyl)-4-methylpiperazine-1-carboxamide]
HDAC6 selectivity (fold): 217 fold | IC50: 46 nM

COc1cccc(N(Cc2ccc(-c3nnc(C(F)F)o3)cc2F)C(=O)N2CCN(C)CC2)c1 [Compound 21473, N-(4-(5-(difluoromethyl)-1,3,4-oxadiazol-2-yl)-2-fluorobenzyl)-N-(3-methoxyphenyl)-4-methylpiperazine-1-carboxamide]
HDAC6 selectivity (fold): 313 fold | IC50: 32 nM

COc1ccccc1N(Cc1ccc(-c2nnc(C(F)F)o2)cc1)C(=O)N1CCS(=O)(=O)CC1 [Compound 21474, N-(4-(5-(difluoromethyl)-1,3,4-oxadiazol-2-yl)benzyl)-N-(2-methoxyphenyl)thiomorpholine-4-carboxamide 1,1-dioxide]
HDAC6 selectivity (fold): 77 fold | IC50: 130 nM

COc1cccc(N(Cc2ccc(-c3nnc(C(F)F)o3)cc2)C(=O)N2CCS(=O)(=O)CC2)c1 [Compound 21475, N-(4-(5-(difluoromethyl)-1,3,4-oxadiazol-2-yl)benzyl)-N-(3-methoxyphenyl)thiomorpholine-4-carboxamide 1,1-dioxide]
HDAC6 selectivity (fold): 145 fold | IC50: 69 nM

Cc1cccc(N(Cc2ccc(-c3nnc(C(F)F)o3)cc2)C(=O)N2CCS(=O)(=O)CC2)c1 [Compound 21476, N-(4-(5-(difluoromethyl)-1,3,4-oxadiazol-2-yl)benzyl)-N-(m-tolyl)thiomorpholine-4-carboxamide 1,1-dioxide]
HDAC6 selectivity (fold): 196 fold | IC50: 51 nM

COc1ccc(N(Cc2ccc(-c3nnc(C(F)(F)F)o3)cc2F)C(=O)N2CCS(=O)(=O)CC2)cc1 [Compound 21477, N-(2-fluoro-4-(5-(trifluoromethyl)-1,3,4-oxadiazol-2-yl)benzyl)-N-(4-methoxyphenyl)thiomorpholine-4-carboxamide 1,1-dioxide]
HDAC6 selectivity (fold): 137 fold | IC50: 73 nM

COc1ccc(N(Cc2ccc(-c3nnc(C(F)F)o3)cc2F)C(=O)N2CCS(=O)(=O)CC2)cc1 [Compound 21478, N-(4-(5-(difluoromethyl)-1,3,4-oxadiazol-2-yl)-2-fluorobenzyl)-N-(4-methoxyphenyl)thiomorpholine-4-carboxamide 1,1-dioxide]
HDAC6 selectivity (fold): 270 fold | IC50: 37 nM

COc1ccccc1N(Cc1ccc(-c2nnc(C(F)(F)F)o2)cc1F)C(=O)N1CCS(=O)(=O)CC1 [Compound 21479, N-(2-fluoro-4-(5-(trifluoromethyl)-1,3,4-oxadiazol-2-yl)benzyl)-N-(2-methoxyphenyl)thiomorpholine-4-carboxamide 1,1-dioxide]
HDAC6 selectivity (fold): 167 fold | IC50: 60 nM

COc1ccccc1N(Cc1ccc(-c2nnc(C(F)F)o2)cc1F)C(=O)N1CCS(=O)(=O)CC1 [Compound 21480, N-(4-(5-(difluoromethyl)-1,3,4-Oxadiazol-2-yl)-2-fluorobenzyl)-N-(2-methoxyphenyl)thiomorpholine-4-carboxamide 1,1-dioxide]
HDAC6 selectivity (fold): 204 fold | IC50: 49 nM

COc1cccc(N(Cc2ccc(-c3nnc(C(F)(F)F)o3)cc2F)C(=O)N2CCS(=O)(=O)CC2)c1 [Compound 21481, N-(2-fluoro-4-(5-(trifluoromethyl)-1,3,4-oxadiazol-2-yl)benzyl)-N-(3-methoxyphenyl)thiomorpholine-4-carboxamide 1,1-dioxide]
HDAC6 selectivity (fold): 172 fold | IC50: 58 nM

COc1cccc(N(Cc2ccc(-c3nnc(C(F)F)o3)cc2F)C(=O)N2CCS(=O)(=O)CC2)c1 [Compound 21482, N-(4-(5-(difluoromethyl)-1,3,4-oxadiazol-2-yl)-2-fluorobenzyl)-N-(3-methoxyphenyl)thiomorpholine-4-carboxamide 1,1-dioxide]
HDAC6 selectivity (fold): 323 fold | IC50: 31 nM

Cc1cccc(N(Cc2ccc(-c3nnc(C(F)(F)F)o3)cc2F)C(=O)N2CCS(=O)(=O)CC2)c1 [Compound 21483, N-(2-fluoro-4-(5-(trifluoromethyl)-1,3,4-oxadiazol-2-yl)benzyl)-N-(m-tolyl)thiomorpholine-4-carboxamide 1,1-dioxide]
HDAC6 selectivity (fold): 141 fold | IC50: 71 nM

Cc1cccc(N(Cc2ccc(-c3nnc(C(F)F)o3)cc2F)C(=O)N2CCS(=O)(=O)CC2)c1 [Compound 21484, N-(4-(5-(difluoromethyl)-1,3,4-oxadiazol-2-yl)-2-fluorobenzyl)-N-(m-tolyl)thiomorpholine-4-carboxamide 1,1-dioxide]
HDAC6 selectivity (fold): 476 fold | IC50: 21 nM

O=C(N1CCS(=O)(=O)CC1)N(Cc1ccc(-c2nnc(C(F)F)o2)cc1)c1ccc(-c2ccccc2)cc1 [Compound 21486, N-([1,1′-biphenyl]-4-yl)-N-(4-(5-(difluoromethyl)-1,3,4-oxadiazol-2-yl)benzyl)thiomorpholine-4-carboxamide 1,1-dioxide]
HDAC6 selectivity (fold): 120 fold | IC50: 83 nM

Cn1ncc2ccc(-c3ccc(N(Cc4ccc(-c5nnc(C(F)F)o5)cc4)C(=O)N4CCS(=O)(=O)CC4)cc3)cc21 [Compound 21488, N-(4-(5-(difluoromethyl)-1,3,4-oxadiazol-2-yl)benzyl)-N-(4-(1-methyl-1H-indazol-6-yl)phenyl)thiomorpholine-4-carboxamide 1,1-dioxide]
HDAC6 selectivity (fold): 90 fold | IC50: 111 nM

O=C(N1CCS(=O)(=O)CC1)N(Cc1ccc(-c2nnc(C(F)F)o2)cc1)c1ccc(-c2cccnc2)cc1 [Compound 21490, N-(4-(5-(difluoromethyl)-1,3,4-oxadiazol-2-yl)benzyl)-N-(4-(pyridin-3-yl)phenyl)thiomorpholine-4-carboxamide 1,1-dioxide]
HDAC6 selectivity (fold): 270 fold | IC50: 37 nM

O=C(N1CCS(=O)(=O)CC1)N(Cc1ccc(-c2nnc(C(F)F)o2)cc1)c1ccc(-c2ccoc2)cc1 [Compound 21492, N-(4-(5-(difluoromethyl)-1,3,4-oxadiazol-2-yl)benzyl)-N-(4-(furan-3-yl)phenyl)thiomorpholine-4-carboxamide 1,1-dioxide]
HDAC6 selectivity (fold): 278 fold | IC50: 36 nM
